Laboratory results from US6521790B2, “Alkynyl amides and their therapeutic applications” (Abbott Laboratories, priority 2000, dated 2003).

Legend:
[1] = tested on: pentylenetetrazole (PTZ) induced seizures; test: Latency to and protection against PTZ induced seizures in mice; assay type: in vivo; conditions: compound 1400 μmol/kg intra-peritoneally; for Time to Seizure: average time for PTZ induced seizure, male CD1 mice, PTZ 85 mg/kg s.c., observed 15 minutes; for Number of Mice Protected: number of mice out of ten that did not seize within 15 minutes after PTZ 85 mg/kg s.c.
Procedure: Male CD1 mice (Charles River, Portage, Mich.) weighing 25-35 g were used and during the experiment the mice were housed individually in clear polycarbonate cages for observation. For each experiment, ten mice were each pretreated intra-peritoneally with a compound of the present invention (1400 μmol/kg) prior to pentylenetetrazole (PTZ) (Sigma, St. Louis, Mo.) injection. Seizures were induced by the subcutaneous injection of PTZ (85 mg/kg) just below the nape of the neck. […] The data in Table 1 represents the average time for PTZ induced seizure. […] Control animals were not pretreated with a compound of the present invention but were injected with PTZ (85 mg/kg) subcutaneously.

[2] = tested on: electrical shock induced seizures; test: Maximum Electrical Shock Method (MES); assay type: in vivo; conditions: oral, male CD1 mice
Source text: Male CD1 mice (Charles River) weighing from 25-35 g were used. Mice were pretreated orally with compounds of the present invention prior to electrical stimulation. Mice were challenge by pulsed electrical stimulation (50 mA, 0.4 s duration, pulse width 0.5 ms, 60 pulses/sec) via corneal electrodes to induce seizure. The stimulation was delivered with an ECT Unit (Ugo Basile #7801). The electrodes of the unit were coated with electrocardiogram electrolyte (Signa Creme, Parker Labs #1708) to ensure good contact with the corneas. Mice were observed post-stimulation for the onset of seizures and death. […] Animals which gave a positive seizure response were observed an additional 30 seconds for death. […] The percent protection from seizures was calculated by dividing the number of protected mice by the total number of mice for the group. The percentage of mice protected from electrical shock induced seizures at doses of 600, 1200, 1800 and 2400 μmole/kg is illustrated in Table 3 for Example 1 and Example 6. The corresponding acid, (2R)-2-propyl-4-hexynoic acid, was also tested for comparison.

[3] = reported in literature (Abbott, Tang, Palaty 1997); cited from earlier work
[4] = one study, compared with valproic acid; cited from earlier work

Structure (SMILES) | Time to Seizure [1] | Number of Mice Protected [1] | Percentage of Mice Protected Against Electrical Shock Induced Seizures ([2]; dose 600 μmole/kg) [%] | Percentage of Mice Protected Against Electrical Shock Induced Seizures ([2]; dose 1200 μmole/kg) [%] | Percentage of Mice Protected Against Electrical Shock Induced Seizures ([2]; dose 1800 μmole/kg) [%] | further results
CC#CC[C@@H](CCC)C(=O)N[C@H](C)C(N)=O [Example 5, (2R)-N-[(1R)-2-amino-1-methyl-2-oxoethyl]-2-propyl-4-hexynamide] | 525 s | 2 | – | – | – | –
CC#CC[C@@H](CCC)C(=O)N[C@@H](C)C(N)=O [Example 4, (2R)-N-[(1S)-2-amino-1-methyl-2-oxoethyl]-2-propyl-4-hexynamide] | 610 s | 6 | – | – | – | –
CC#CC[C@@H](CCC)C(=O)N[C@@H](CC(C)C)C(N)=O [Example 3, (2R)-N-[(1S)-1-(aminocarbonyl)-3-methylbutyl]-2-propyl-4-hexynamide] | 575 s | 4 | – | – | – | –
CC#CC[C@@H](CCC)C(=O)O [(2R)-2-propyl-4-hexynoic acid, reference compound] | – | – | 0 | 0 | 0 | Percentage of Mice Protected Against Electrical Shock Induced Seizures ([2]; dose 2400 μmole/kg): 20%
CC#CC[C@@H](CCC)C(N)=O [Example 6, (2R)-2-propyl-4-hexynamide] | No Seizures | 10 | 0 | 20 | 90 | –
CC#CC[C@@H](CCC)C(=O)NCC(N)=O [Example 1, (2R)-N-(2-amino-2-oxoethyl)-2-propyl-4-hexynamide] | 675 s | 5 | 0 | 70 | 90 | Percentage of Mice Protected Against Electrical Shock Induced Seizures ([2]; dose 2400 μmole/kg): 100%
CC#CC[C@@H](CCC)C(=O)N[C@H](C(N)=O)C(C)C [Example 2, (2R)-N-[(1S)-1-(aminocarbonyl)-2-methylpropyl]-2-propyl-4-hexynamide] | 305 s | 1 | – | – | – | –
CCCC(F)(CCC)C(=O)O [2-fluoro-2-propylpentanoic acid] | – | – | – | – | – | Anticonvulsant potency relative to VPA [3]: less potent than VPA
CC#CCC(CCC)C(=O)O (stereo not shown) [2-propyl-4-hexynoic acid] | – | – | – | – | – | Antiepileptic effect and duration of activity [4]: effective antiepileptic with a longer duration of activity
